From paper PMC11078216, “Discovery of potent and selective activity-based probes (ABPs) for the deubiquitinating enzyme USP30” (RSC Chemical Biology, 2024) come the findings set out here.

The target in this assay is T1, USP30 (Homo sapiens, UniProt Q70CQ3).
T1 construct: We next determined cellular engagement of endogenous USP30 with IMP-2587 or IMP-2586; endogenous in cells; host or cells: HEK293T
T1 sequence (Q70CQ3 1-517): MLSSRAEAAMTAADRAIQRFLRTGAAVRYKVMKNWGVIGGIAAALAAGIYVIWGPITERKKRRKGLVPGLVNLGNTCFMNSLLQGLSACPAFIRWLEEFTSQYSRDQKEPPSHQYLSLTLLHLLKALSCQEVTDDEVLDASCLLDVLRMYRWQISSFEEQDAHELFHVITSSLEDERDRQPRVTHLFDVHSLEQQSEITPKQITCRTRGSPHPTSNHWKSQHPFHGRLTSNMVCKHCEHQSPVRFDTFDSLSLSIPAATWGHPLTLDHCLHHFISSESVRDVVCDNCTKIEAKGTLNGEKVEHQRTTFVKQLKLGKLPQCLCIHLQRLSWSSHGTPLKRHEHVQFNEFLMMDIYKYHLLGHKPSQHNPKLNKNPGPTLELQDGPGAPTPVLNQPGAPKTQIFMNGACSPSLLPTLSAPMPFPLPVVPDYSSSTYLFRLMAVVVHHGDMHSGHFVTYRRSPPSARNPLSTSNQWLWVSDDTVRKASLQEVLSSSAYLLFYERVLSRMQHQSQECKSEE
Put plainly: In-cell target engagement using HA-Ub-VME competition, immunoblot. In kind it is cell-based. Particulars: HEK293T cells, 1 hour, in-lysate HA-Ub-VME competition, western blot. How it is done: We next determined cellular engagement of endogenous USP30 with IMP-2587 or IMP-2586. […] In-cell concentration-dependent competition by IMP-2587 and IMP-2586 for USP30 were confirmed below 100 nM probe (Fig. 2b and c), whilst engagement of an exemplar unrelated DUB, UCHL1, occurred only at a much higher concentration (30 000 nM). We hypothesise that incomplete modification of USP30 by HA-Ub-VME is likely due to limited retention of USP30 activity in cell lysates, which have likely had the USP30 transmembrane domain compromised, highlighting the potential utility of a small molecule USP30 ABP applicable directly in intact cells. Direct USP30 target engagement by IMP-2587 and IMP-2586 was confirmed in HEK293T cells following 1 h probe treatment followed by cell lysis and CuAAC bio-orthogonal ligation to capture reagent azido-TAMRA-biotin (AzTB) for IMP-2587 or alkyne-TAMRA-biotin for IMP-2586 (Fig. 3a).[27] […] This unspecific background labelling is presumably due to the previously reported higher off-target CuAAC reactivity of an alkyne-bearing capture reagent, applied here due to incorporation of an azide tag in IMP-2586.[28] Moreover, the labelling of USP30 was further confirmed by biotin pulldown and immunoblotting.
2) USP30 in-cell engagement analysis […]
Protein concentration was determined by DC Protein assay (Bio-RAD). […]

For `N#CN1CC[C@@H](NC(=O)c2cc(-c3ccccc3Oc3ccc(N=[N+]=[N-])cc3)n[nH]2)C1` [IMP-2586], the “probe concentration at which in-cell competition for USP30 was confirmed” value is recorded as “below 100 nM”.
With `C#Cc1cccc(-c2cc(NC(=O)CC3CCN(C#N)C3)on2)c1` (centres unmarked) [IMP-2587], the “probe concentration at which in-cell competition for USP30 was confirmed” value is on record as “below 100 nM”.
